Assay results from patent US20260158136A1, “MEDICAMENT FOR TREATMENT AND/OR PREVENTION OF CANCER” (TORAY INDUSTRIES, INC., priority 2022, published 2026).

Experiments:
Assay type in all cases: cell-based
[1] = system: human colon cancer cell line (HCT116); assay: THP-1-mediated phagocytic activity against HCT116, anti-CAPRIN-1 antibody with palbociclib or abemaciclib (Example 2A); settings: Student's t test, p<0.001; with anti-CAPRIN-1 antibody; FIG. 1
Protocol: (§1) Specifically, in CDK inhibitor combination test group, the indicated drug used in combination was applied to human cancer cells, and then the cancer cells were cocultured with human monocytic cells (THP-1) in the presence of the anti-CAPRIN-1 antibody, and the antibody-mediated phagocytic activity against the cancer cells by THP-1 was evaluated.
(§2) The human-derived cancer cell used was a colon cancer cell line HCT116. On a 6-well plate, the human-derived cancer cells were cultured for 2 days in the presence of palbociclib (10 μM) or abemaciclib (1 μM) for the CDK inhibitor combination test group. As a control, a test group without a drug used in combination, in which only the anti-CAPRIN-1 antibody was added, was established. […]
(§3) Each cancer cell line after the culture was dissociated with TrypLE Express (Thermo), and the cancer cells were stained by the addition of calcein-AM at a final concentration of 0.04 μg/mL and incubation at 37° C. for 10 minutes. […] Further, dead cells were stained with propidium iodide (PI) (final concentration: 0.1 μg/mL), followed by the measurement of fluorescence from the cells by flow cytometry. […] Thus, the phagocytic activity in this evaluation system was calculated as the ratio (%) of APC-positive/calcein-AM-positive cells to the whole calcein-AM-positive population.

[2] = system: human colon cancer cell line (HCT116); assay: THP-1-mediated phagocytic activity against HCT116, anti-CAPRIN-1 antibody with palbociclib or abemaciclib, control IgG included (Example 2B); settings: Dunnett's test, p<0.001; anti-CAPRIN-1 antibody treatment group; FIG. 2
Protocol: as §1, with “evaluated. A human IgG antibody (Sigma-Aldrich Co. LLC, Cat. No.: 4506) was used as a control antibody.” for “evaluated.”
as §2, with “of the” for “of”, “([…])” for “(10 μM)”, “(1 μM),” for “(1 μM)”
as §3

[3] = system: human colon cancer cell line (HCT116); assay: THP-1-mediated phagocytic activity against HCT116, anti-CAPRIN-1 antibody with palbociclib or cisplatin (Example 5); settings: for phagocytic activity of combination test group compared with test group without a drug used in combination: Dunnett's test, with anti-CAPRIN-1 antibody, FIG. 5; for phagocytic activity against cancer cells: drug combination test group: HCT116 cultured 2 days with palbociclib 10 μM or cisplatin 1 μM, then anti-CAPRIN-1 humanized antibody #1 1 μg/mL + THP-1, 1 h
Protocol: as §1, with “each” for “CDK”
The human-derived cancer cell used was a colon cancer cell line HCT116. On a 6-well plate, the human-derived cancer cells were cultured for 2 days in the presence of the respective drugs used in combination, for the palbociclib combination test group. Specifically, palbociclib was added at a concentration of 10 μM and cisplatin at a concentration of 1 μM to HCT 116. As a control, a test group without a drug used in combination, in which only the anti-CAPRIN-1 antibody was added, was established. In the control group, the cancer cells were cultured for 2 days without addition of the drug used in combination beforehand.
(§4) Each cancer cell line after the culture was dissociated with TrypLE Express (Thermo), and the cancer cells were stained by the addition of calcein-AM at a final concentration of 0.04 μg/mL and incubation at 37° C. for 10 minutes. Next, the cells were dispensed at 1×10^4 cancer cells per well to a 96-well plate, and the anti-CAPRIN-1 antibody at a final concentration of 1 μg/mL and 10×10^5 THP-1 cells were added to each well, followed by culture at 37° C. for 1 hour under a condition of 5% CO2. Then, the cells were washed with PBS (phosphate buffer solution) containing 1% FBS (fetal bovine serum), and the human monocytic cells were stained through a reaction with an APC (allophycocyanin)-labeled anti-human CD45 antibody (final concentration: 0.25 μg/mL). Further, dead cells were stained with propidium iodide (PI) (final concentration: 0.1 μg/mL), followed by the measurement of fluorescence from the cells by flow cytometry. PI-positive dead cells were excluded from analysis. The human monocytic cells THP-1 recognize an antibody bound onto cancer cells and phagocytize the cancer cells. At that time, if the cancer cells have been stained with calcein-AM, the monocytic cells ingesting the cancer cells by phagocytosis also become positive to calcein-AM. Thus, the phagocytic activity in this evaluation system was calculated as the ratio (%) of APC-positive/calcein-AM-positive cells to the whole calcein-AM-positive population.

[4] = system: human colon cancer cell line (HCT116); assay: THP-1-mediated phagocytic activity against HCT116, anti-CAPRIN-1 antibody with ribociclib (Example 3)
Protocol: as §1, with “ribociclib” for “drug used in combination”
The human-derived cancer cell used was a colon cancer cell line HCT116. On a 6-well plate, the human-derived cancer cells were cultured for 2 days in the presence of the ribociclib (30 μM), for the CDK inhibitor combination test group. As a control, a test group without a drug used in combination, in which only the anti-CAPRIN-1 antibody was added, was established. In the control group, the cancer cells were cultured for 2 days without addition of the drug used in combination beforehand.
as §4, with “5×10^3” for “1×10^4”, “1.25×10^5” for “10×10^5”, “At that time, if the cancer cells have been stained with calcein-AM, the monocytic cells ingesting the cancer cells by phagocytosis also become positive to calcein-AM.” left out

[5] = system: human colon cancer cell line (HCT116); assay: THP-1-mediated phagocytic activity against HCT116, anti-CAPRIN-1, anti-CD20 or anti-HER-2 antibody alone or with palbociclib (Example 4)
Protocol: The human-derived cancer cell used was a colon cancer cell line HCT116. On a 6-well plate, the human-derived cancer cells were cultured for 2 days in the presence of the respective drugs used in combination for the palbociclib combination test group. Specifically, palbociclib was added at a concentration of 10 μM to HCT 116. […] In the control group, the cancer cells were cultured for 2 days without addition of palbociclib beforehand.
as §4, with “Next, the cells were dispensed at 1×10^4 cancer cells per well to a 96-well plate, and the anti-CAPRIN-1 antibody at a final concentration of 1 μg/mL and 10×10^5 THP-1 cells were added to each well, followed by culture at 37° C. for 1 hour under a condition of 5% CO2.” left out, “[…]).” for “μg/mL).”

Compound	phagocytic activity of combination test group compared with test group without a drug used in combination [1]	phagocytic activity of combination test group compared with test group without a drug used in combination [2]	phagocytic activity of combination test group compared with test group without a drug used in combination [3]	phagocytic activity against cancer cells [3] [%]	further results
CCN1CCN(Cc2ccc(Nc3ncc(F)c(-c4cc(F)c5nc(C)n(C(C)C)c5c4)n3)nc2)CC1 [abemaciclib, N-[5-[(4-ethylpiperazin-1-yl)methyl]pyridin-2-yl]-5-fluoro-4-(7-fluoro-2-methyl-3-propan-2-ylbenzimidazol-5-yl)pyrimidin-2-amine]	significantly higher	significantly higher	–	–	–
N.N.[Cl][Pt][Cl] [cisplatin]	–	–	no significant change	≤ 23	–
CC(=O)c1c(C)c2cnc(Nc3ccc(N4CCNCC4)cn3)nc2n(C2CCCC2)c1=O [palbociclib, 6-acetyl-8-cyclopentyl-5-methyl-2-[(5-piperazin-1-ylpyridin-2-yl)amino]pyrido[2,3-d]pyrimidin-7-one]	significantly higher	significantly higher	significantly higher	≥ 54	–
CN(C)C(=O)c1cc2cnc(Nc3ccc(N4CCNCC4)cn3)nc2n1C1CCCC1 [ribociclib, 7-cyclopentyl-N,N-dimethyl-2-[(5-piperazin-1-ylpyridin-2-yl)amino]pyrrolo[2,3-d]pyrimidine-6-carboxamide]	–	–	–	–	phagocytic activity of combination test group compared with test group without a drug used in combination ([4]; Dunnett's test, p<0.001, with anti-CAPRIN-1 antibody, FIG. 3): significantly higher; increase of antitumor effect of the anti-CAPRIN-1 antibody by the combination ([4]; combination versus antibody alone, HCT116): ≥ 2.5 times; phagocytic activity against cancer cells ([4]; ribociclib combination test group: HCT116 cultured 2 days with ribociclib 30 μM, then anti-CAPRIN-1 humanized antibody #1 1 μg/mL + THP-1, 1 h): ≥ 58%
anti-CD20 antibody: anti-CD20 antibody ("Rituxan") purchased from Chugai Pharmaceutical Co., Ltd.	–	–	–	–	effect of palbociclib combination on phagocytic activity compared with antibody without a drug used in combination ([5]; palbociclib 10 μM, Dunnett's test, FIG. 4): not remarkably increased; phagocytic activity against cancer cells ([5]; palbociclib combination test group: HCT116 cultured 2 days with palbociclib 10 μM, then antibody at final concentration 1 μg/mL + THP-1, 1 h): ≤ 11%; phagocytic activity against cancer cells ([5]; test group without a drug used in combination: antibody only, 1 μg/mL + THP-1, 1 h): ≤ 7%
